Calls of active or inactive are those of the source. The calls are words filed in the database; no cut-off is given here.
Tests used:
MGC-803 [1] = experiment: Inhibition of colony formation in human MGC-803 cells incubated for 48 hrs by phase-contrast microscopy; type: functional, cell-based; conditions: dose 1-4 µM
MGC-803 [2] = experiment: Induction of ROS generation in human MGC-803 cells at 2 uM incubated for 24 hrs by DCFH-DA staining based flow cytometry analysis (reference value: 3.1%); type: functional
[3] = molecular target: T1, NEDD8 activating enzyme (Homo sapiens) (UniProt Q8TBC4+Q13564); experiment: Inhibition of NAE in human MGC-803 cells assessed as reduction in cullin3 neddylation incubated for 24 hrs by Western blot analysis; type: cell-based; conditions: dose 1-5 µM
[4] = Selectivity index, ratio of IC50 for human A549 cells to IC50 for HUVECs
MGC-803 [5] = experiment: Induction of cell cycle arrest in human MGC-803 cells assessed as accumulation of cells in S phase at 1 uM incubated for 24 hrs by flow cytometry analysis (reference value: 21.93%); type: functional
MGC-803 [6] = experiment: Induction of cell cycle arrest in human MGC-803 cells assessed as accumulation of cells at G1 phase at 1 uM incubated for 24 hrs by flow cytometry analysis (reference value: 64.82%); type: functional
MGC-803 [7] = experiment: Inhibition of cell migration in human MGC-803 cells assessed as reduction in wound closure rate at 4 uM incubated for 48 hrs by wound healing assay (reference value: 49%); type: functional
MGC-803 [8] = experiment: Induction of ROS generation in human MGC-803 cells at 4 uM incubated for 24 hrs by DCFH-DA staining based flow cytometry analysis (reference value: 3.1%); type: functional
MGC-803 [9] = experiment: Induction of cell cycle arrest in human MGC-803 cells assessed as accumulation of cells at G1 phase at 4 uM incubated for 24 hrs by flow cytometry analysis (reference value: 64.82%); type: functional
MGC-803 [10] = experiment: Induction of apoptosis in human MGC-803 cells assessed as early apoptosis cells at 4 uM incubated for 48 hrs by Annexin V-FITC/PI double staining based flow cytometry analysis (reference value: 0.39 %); type: functional
[11] = Selectivity index, ratio of IC50 for human KYSE-30 cells to IC50 for HUVECs
MGC-803 [12] = experiment: Induction of apoptosis in human MGC-803 cells assessed as early apoptosis cells at 1 uM incubated for 48 hrs by Annexin V-FITC/PI double staining based flow cytometry analysis (reference value: 0.39 %); type: functional
MGC-803 [13] = experiment: Induction of apoptosis in human MGC-803 cells assessed as viable cells at 2 uM incubated for 48 hrs by Annexin V-FITC/PI double staining based flow cytometry analysis (reference value: 97.3 %); type: functional; conditions: read-out: Activity
MGC-803 [14] = experiment: Induction of apoptosis in human MGC-803 cells assessed as late apoptosis cells at 4 uM incubated for 48 hrs by Annexin V-FITC/PI double staining based flow cytometry analysis (reference value: 1.95 %); type: functional
[15] = Selectivity index, ratio of IC50 for human MGC-803 cells to IC50 for HUVECs
MGC-803 [16] = experiment: Inhibition of cell migration in human MGC-803 cells incubated for 48 hrs by wound healing assay; type: functional, cell-based; conditions: dose 1-4 µM
MGC-803 [17] = experiment: Induction of cell cycle arrest in human MGC-803 cells assessed as accumulation of cells in S phase at 4 uM incubated for 24 hrs by flow cytometry analysis (reference value: 21.93%); type: functional
[18] = molecular target: T1, NEDD8 activating enzyme (Homo sapiens); experiment: Inhibition of NAE in human MGC-803 cells assessed as reduction in cullin1 neddylation incubated for 24 hrs by Western blot analysis; type: cell-based; conditions: dose 1-5 µM
[19] = Cytotoxicity against HUVECs incubated for 72 hrs by CCK8 assay; type: toxicity, cell-based; conditions: human, HUVEC cells
MGC-803 [20] = experiment: Induction of apoptosis in human MGC-803 cells assessed as late apoptosis cells at 2 uM incubated for 48 hrs by Annexin V-FITC/PI double staining based flow cytometry analysis (reference value: 1.95 %); type: functional
MGC-803 [21] = experiment: Induction of apoptosis in human MGC-803 cells assessed as early apoptosis cells at 2 uM incubated for 48 hrs by Annexin V-FITC/PI double staining based flow cytometry analysis (reference value: 0.39 %); type: functional
[22] = molecular target: T1, NEDD8 activating enzyme (Homo sapiens); experiment: Inhibition of NAE in human MGC-803 cells assessed as reduction in NAE1-NEDD8 complex formation at 5 uM incubated for 24 hrs by Western blot analysis relative to control; type: cell-based
MGC-803 [23] = experiment: Induction of apoptosis in human MGC-803 cells assessed as viable cells at 1 uM incubated for 48 hrs by Annexin V-FITC/PI double staining based flow cytometry analysis (reference value: 97.3 %); type: functional; conditions: read-out: Activity
[24] = Selectivity index, ratio of IC50 for human MCF7 cells to IC50 for HUVECs
MGC-803 [25] = experiment: Induction of apoptosis in human MGC-803 cells assessed as late apoptosis cells at 1 uM incubated for 48 hrs by Annexin V-FITC/PI double staining based flow cytometry analysis (reference value: 1.95 %); type: functional
MGC-803 [26] = experiment: Induction of apoptosis in human MGC-803 cells assessed as necrotic cells at 4 uM incubated for 48 hrs by Annexin V-FITC/PI double staining based flow cytometry analysis (reference value: 0.37 %); type: functional
MGC-803 [27] = experiment: Induction of apoptosis in human MGC-803 cells assessed as necrotic cells at 1 uM incubated for 48 hrs by Annexin V-FITC/PI double staining based flow cytometry analysis (reference value: 0.37 %); type: functional
MGC-803 [28] = experiment: Antiproliferative activity against human MGC-803 cells by CCK8 assay; type: functional, cell-based
MCF7 = experiment: Antiproliferative activity against human MCF7 cells by CCK8 assay; type: functional, cell-based
A549 = experiment: Antiproliferative activity against human A549 cells by CCK8 assay; type: functional, cell-based
MGC-803 [29] = experiment: Induction of apoptosis in human MGC-803 cells assessed as necrotic cells at 2 uM incubated for 48 hrs by Annexin V-FITC/PI double staining based flow cytometry analysis (reference value: 0.37 %); type: functional
MGC-803 [30] = experiment: Induction of cell cycle arrest in human MGC-803 cells assessed as accumulation of cells in G2/M phase at 2 uM incubated for 24 hrs by flow cytometry analysis (reference value: 13.25%); type: functional
[31] = molecular target: T1, NEDD8 activating enzyme (Homo sapiens); experiment: Inhibition of NAE in human MGC-803 cells assessed as reduction in UBC12-NEDD8 complex incubated for 24 hrs by Western blot analysis; type: cell-based; conditions: dose 1-5 µM
[32] = molecular target: T1, NEDD8 activating enzyme (Homo sapiens); experiment: Inhibition of NAE in human MGC-803 cells assessed as reduction in NAE1-NEDD8 complex incubated for 24 hrs by Western blot analysis; type: cell-based; conditions: dose 1-5 µM
MGC-803 [33] = experiment: Induction of cell cycle arrest in human MGC-803 cells assessed as accumulation of cells in G2/M phase at 1 uM incubated for 24 hrs by flow cytometry analysis (reference value: 13.25%); type: functional
MGC-803 [34] = experiment: Induction of apoptosis in human MGC-803 cells assessed as viable cells at 4 uM incubated for 48 hrs by Annexin V-FITC/PI double staining based flow cytometry analysis (reference value: 97.3 %); type: functional; conditions: read-out: Activity
KYSE-30 = experiment: Antiproliferative activity against human KYSE-30 cells by CCK8 assay; type: functional, cell-based
MGC-803 [35] = experiment: Induction of cell cycle arrest in human MGC-803 cells assessed as accumulation of cells in G2/M phase at 4 uM incubated for 24 hrs by flow cytometry analysis (reference value: 13.25%); type: functional
MGC-803 [36] = experiment: Induction of cell cycle arrest in human MGC-803 cells assessed as accumulation of cells in S phase at 2 uM incubated for 24 hrs by flow cytometry analysis (reference value: 21.93%); type: functional
[37] = molecular target: T1, NEDD8 activating enzyme (Homo sapiens); experiment: Inhibition of NAE in human MGC-803 cells assessed as reduction in cullin5 neddylation incubated for 24 hrs by Western blot analysis; type: cell-based; conditions: dose 1-5 µM
MGC-803 [38] = experiment: Induction of cell cycle arrest in human MGC-803 cells assessed as accumulation of cells at G1 phase at 2 uM incubated for 24 hrs by flow cytometry analysis (reference value: 64.82%); type: functional
MGC-803 [39] = experiment: Induction of ROS generation in human MGC-803 cells at 1 uM incubated for 24 hrs by DCFH-DA staining based flow cytometry analysis (reference value: 3.1%); type: functional

inhibition [3]: Dose-Dependent Effect
inhibition [18]: Dose-Dependent Effect
inhibition [22]: 100%
IC50 (MGC-803 [28]): 1630 nM
IC50 (MCF7): 960 nM
IC50 (A549): 870 nM
inhibition [31]: Dose-Dependent Effect
inhibition [32]: Dose-Dependent Effect
inhibition [37]: inactive
Structure (SMILES): CCc1ccc(C(=O)Nc2nc3ccc(NC(=O)C4CCN(Cc5ccccc5)CC4)cc3s2)cc1
inhibition (MGC-803 [1]): Dose-Dependent Effect
Activity (MGC-803 [2]): 13.1%
Ratio IC50 [4]: 3.8
Activity (MGC-803 [5]): 13.29%
Activity (MGC-803 [6]): 68.08%
inhibition at 4 µM (MGC-803 [7]): < 20%
Activity (MGC-803 [8]): 26.4%
Activity (MGC-803 [9]): 45.22%
Activity (MGC-803 [10]): 8.54%
Ratio IC50 [11]: 3.8
Activity (MGC-803 [12]): 3.15%
viability at 2 µM (MGC-803 [13]): 73.3%
Activity (MGC-803 [14]): 33.8%
Ratio IC50 [15]: 3.8
inhibition (MGC-803 [16]): Dose-Dependent Effect
Activity (MGC-803 [17]): 17.12%
IC50 at 72 h [19]: 6210 nM
Activity (MGC-803 [20]): 18.5%
Activity (MGC-803 [21]): 7.92%
viability at 1 µM (MGC-803 [23]): 86.5%
Ratio IC50 [24]: 3.8
Activity (MGC-803 [25]): 10.1%
Activity (MGC-803 [26]): 0.11%
Activity (MGC-803 [27]): 0.18%
Activity (MGC-803 [29]): 0.23%
Activity (MGC-803 [30]): 25.9%
Activity (MGC-803 [33]): 18.63%
viability at 4 µM (MGC-803 [34]): 57.6%
IC50 (KYSE-30): 650 nM
Activity (MGC-803 [35]): 37.66%
Activity (MGC-803 [36]): 12.39%
Activity (MGC-803 [38]): 61.71%
Activity (MGC-803 [39]): 6.8%

From ChEMBL document CHEMBL5625268, “Identification of novel benzothiazole derivatives as inhibitors of NEDDylation pathway to inhibit the progression of gastric cancer” (Bioorg Med Chem Lett, 2024)
